Test results reported in publication PMC6278295, “Shape Effects of Peptide Amphiphile Micelles for Targeting Monocytes” (Molecules, 2018).

What was measured:
[1] = Circular dichroism secondary structure; format: physicochemical; details: CD, 100 µM, 190-240 nm, five scans averaged, Provencher & Glockner Method
Experimental: Circular dichroism (CD) spectroscopy was carried out using a Jasco J-815 spectropolarimeter (Easton, MD, USA). PAM solutions (100 µM) were analyzed in 0.2 mm path-length cuvettes. Measurements were made at 0.5 nm intervals from 190 nm to 240 nm with 1 s intervals and 1 nm bandwidth. Data from five scans were averaged to create the CD spectra, and the secondary structures were quantified using the Provencher & Glockner Method.

murine monocytes = assay: Chemotaxis assay (transwell, migrated monocyte DNA); format: cell-based; details: 4 h, 8 µm pore transwell, Pico Green, n = 4
Experimental: To determine the chemoattractant properties of PAMs, 50,000 monocytes in 20 µL were suspended on a 24-well transwell plate with 8 µm pores. After 4 h, the number of cells that migrated to the bottom well containing 1 µM, 10 µM, 100 µM, 1000 µM PAMs, peptides, or PBS was quantified by lysing the cells via sonication, and measuring DNA using Quant-it Pico Green (Invitrogen, Carlsbad, CA, USA).

| Sequence | Secondary Structure, Alpha Helix [1] [%] | Secondary Structure, Beta Sheet [1] [%] | Secondary Structure, Random Coil [1] [%] | Amount of migrated monocyte DNA at 1000 µM (murine monocytes) [ng/mL] |
| --- | --- | --- | --- | --- |
| YNFTNRKISVQRLASYRRITSSK [MCP-1 Peptide, MCP-1 peptide (residues 13–35) modified with a cysteine at the N-terminus] | 9.2 | 36.2 | 54.5 | 78.98 ± 0.8 |
| YNSLVFRIRNSTQRKYRASIST [Scrambled MCP-1 Peptide, scrambled version of the MCP-1 peptide designed to mimic its secondary structure] | 8.6 | 43.9 | 47.5 | – |
